Assay results as given in PubChem BioAssay AID493198 (Southern Research Specialized Biocontainment Screening …, 2011).
Activity calls are given as the source filed them. No rule for the calls is given here. Where a SMILES comes first, the peptide text is derived from it.

Tests used:
[1] = system: Mycobacterium tuberculosis H37Rv growth in 7H9 media; assay: M. tuberculosis growth inhibition, dose response, H37Rv, purified and synthesized compounds (AID 493198); settings: for IC90: 90% growth inhibition concentration
[2] = as above; settings: Mycobacterium tuberculosis H37Rv growth in 7H9 media; at 100 µM (top of the series)

Row | SMILES | IC50 [1] | IC90 [1] | growth inhibition [2]
1 | S=c1nc[nH]c2nc[nH]c12 | 1280 nM | 1760 nM | –
2 | CCOC(=O)c1ccc(NC(=O)Cn2ncc(Cl)c(Cl)c2=O)cc1 | < 200 nM | 203 nM | –
3 | CCOC(=O)COn1c2c(c3c4no[n+]([O-])c4ccc31)CCCC2 | 1580 nM | 3110 nM | –
4 | Cc1ccc2c(c1)c(C1=c3ccccc3=NC1=O)c(O)n2C | < 200 nM | 1870 nM | –
5 | Cc1ccc(NC(=O)C2C3/C=C\CCCCC32)cc1C (centres undefined) | 1170 nM | 1840 nM | –
6 | Cc1nn2c(NCc3ccccn3)cc(C(C)C)nc2c1-c1ccccc1 | 1030 nM | 1560 nM | –
7 | O=C(CSc1nc2ccccc2c(=O)[nH]1)NCc1ccc(Cl)cc1 | < 200 nM | 929 nM | –
8 | O=C(/C=C/c1ccccc1)N1CCN(CCN2C(=O)c3cccc4cccc(c34)C2=O)CC1 | 3470 nM | 5320 nM | –
9 | CCOC(=O)C(C)Sc1ncnc2c1nnn2-c1ccc(F)cc1 (centres undefined) | < 200 nM | 7770 nM | –
10 | CCc1ccc(/C=C2/C(=O)N(C)C(=S)N2CC(=O)OC)s1 | 2270 nM | 17700 nM | –
11 | COC(=O)C(C)Oc1ccc(-c2nccc(-c3ccccn3)n2)cc1 (centres undefined) | 1190 nM | 2920 nM | –
12 | Oc1ccccc1/C=N/Nc1ccnc(SCc2ccccc2)n1 | – | – | 2.04% (inactive)
13 | CC(=NCc1ccc2c(c1)OCO2)C1=C(O)c2ccccc2C1=O | < 200 nM | 23100 nM | –
14 | CCC(C)Nc1ccc(NC(C)CC)cc1 (centres undefined) | 609 nM | 1660 nM | –
15 | CNc1nc(SCc2ccccc2Cl)nc2c1CCCC2 | < 200 nM | 5050 nM | –
16 | Cc1ccc2ccc3ccc(C)nc3c2n1 | < 200 nM | < 200 nM | –
17 | COC(=O)C1CC(=O)N(c2ccc(OCc3ccccc3Cl)cc2)C1 (centres undefined) | < 200 nM | 18400 nM | –
18 | CCOC(=O)COc1ccc(/C=C2\NC(=S)N(CC)C2=O)cc1 | 1310 nM | 5200 nM | –
19 | c1ccc(/N=C2\N=C(Nc3ccccn3)c3ccccc32)nc1 | < 200 nM | < 200 nM | –
20 | O=C(/C=C\c1cccs1)N1CCN(Cc2ccc3c(c2)OCO3)CC1 | 445 nM | 7480 nM | –
21 | Cc1nc(SCC(=O)NC2CCCCC2)[nH]c(=O)c1C | < 200 nM | < 200 nM | –
22 | COC(=O)c1cc(=O)n(-c2ccc(F)cc2)c(=Nc2ccc(F)cc2)s1 | < 200 nM | 1580 nM | –
23 | Cc1cccc(/C=C/C(=O)c2ccc([N+](=O)[O-])o2)c1 | < 200 nM | < 200 nM | –
24 | COC(=O)CCc1nc2c(C#N)c(-c3ccc(Cl)cc3)ccn2n1 | < 200 nM | 14000 nM | –
25 | O=C1C(Br)=Cc2cccc3cccc1c23 | < 200 nM | < 200 nM | –
26 | CCOC(=O)CNC(=O)[C@H](Cc1ccccc1)NC(=O)OCc1ccccc1 (HELM PEPTIDE1{[O=C(OCc1ccccc1)[*:2]].F.G.[CCO[*:1]]}$$$$V2.0) | 1090 nM | 1860 nM | –
27 | CC(C)NC(=O)c1sc(=S)n2c1[nH]c(=O)c1ccc(C(=O)NCCc3ccc(Cl)cc3)cc12 | < 200 nM | < 200 nM | –
28 | O=C(NCC(c1cccs1)N1CCOCC1)c1cc([N+](=O)[O-])cc([N+](=O)[O-])c1 (centres undefined) | < 200 nM | < 200 nM | –
29 | O=C(CSc1nc2ccccc2c(=O)[nH]1)NC1CCCCC1 | < 200 nM | < 200 nM | –
30 | COc1cc(NC(=O)C/C(C)=N/NC(=O)c2ccccn2)c(OC)cc1Cl | 1940 nM | 4880 nM | –
